Data: patent US20230053688A1, “METHODS TO ALTER LATENCY IN EBV+ MALIGNANCIES” (Cornell University, priority 2020, published 2023)
Counter-ions that a name gives are not always drawn. Like-named read-outs stand apart in the source and are kept apart here.

Test system: LMP1 expression in Kem I cells
Experiment: microbe, parasite or virus in culture
Format: cell-based, EBV
Conditions: for fold induction at 2.5 µM: human gammaherpesvirus 4, 48 h
[1] = Kem I cells, dose 2.5 uM, 48 hours, LMP1 transcript by in-well qRT-PCR, average of the two replicates
[2] = Kem I cells, dose 2.5 uM, 48 hours, LMP1 transcript by in-well qRT-PCR, screen replicate 1
[3] = Kem I cells, dose 2.5 uM, 48 hours, LMP1 transcript by in-well qRT-PCR, screen replicate 2
[4] = Kem I cells, 2.5 uM, 48 hours, average of replicates 1 and 2
[5] = Kem I cells, 2.5 uM, 48 hours, fold change in LMP1 transcript vs vehicle
[6] = read-out: Average LMP1 Fold Increase, Kem I cells, 2.5 uM, 48 hours, average of replicates 1 and 2
[7] = read-out: Replicate 1-LMP1 Fold Increase, Kem I cells, 2.5 uM, 48 hours, fold change in LMP1 transcript vs vehicle
[8] = read-out: Replicate 2-LMP1 Fold Increase, Kem I cells, 2.5 uM, 48 hours, fold change in LMP1 transcript vs vehicle

Molecule	Average LMP1 Fold Increase [4]	Replicate 1-LMP1 Fold Increase [5]	Replicate 2-LMP1 Fold Increase [5]	further results
C[C@]1(c2nc3c(C(N)=O)cccc3[nH]2)CCCN1 [Veliparib (ABT-888)]	–	–	–	Average LMP1 Fold Increase [1]: 1.08 fold; Replicate 1-LMP1 Fold Increase [2]: 0.71 fold; Replicate 2-LMP1 Fold Increase [3]: 1.45 fold
CO[C@H]1C[C@@H]2CC[C@@H](C)[C@@](O)(O2)C(=O)C(=O)N2CCCC[C@H]2C(=O)O[C@H]([C@H](C)C[C@@H]2CC[C@@H](OCCO)[C@H](OC)C2)CC(=O)[C@H](C)/C=C(\C)[C@@H](O)[C@@H](OC)C(=O)[C@H](C)C[C@H](C)/C=C/C=C/C=C/1C [Everolimus (RAD001)]	1.65	2.00	1.31	–
C#Cc1cccc(Nc2ncnc3cc4c(cc23)OCCOCCOCCO4)c1 [Icotinib]	–	–	–	fold induction at 2.5 µM [6]: 8.04; fold induction at 2.5 µM [7]: 15.7; fold induction at 2.5 µM [8]: 0.34
Cc1cc(NC(=O)Nc2ccc(N(C)C)cc2)c2cc(F)cc(F)c2n1 [SB408124]	0.67	0.81	0.53	–
O=C(Oc1cc(S(=O)(=O)c2ccccc2)ccc1[N+](=O)[O-])c1ccc(Cl)cc1 [BTB06584]	1.22	1.23	1.20	–
S3I-201	0.65	0.63	0.67	–
C[C@H](N[C@@H](CCc1ccccc1)C(=O)O)C(=O)N1CCC[C@H]1C(=O)O.O.O [Enalaprilat Dihydrate]	0.51	0.51	0.52	–
O=C(NNc1ccccc1)c1ccncc1 [PluriSln #1 (NSC 14613)]	1.32	1.70	0.94	–
C[C@@H](NCCCc1cccc(C(F)(F)F)c1)c1cccc2ccccc12 [Cinacalcet HCl]	–	–	–	fold induction at 2.5 µM [6]: 0.75; fold induction at 2.5 µM [7]: 1.17; fold induction at 2.5 µM [8]: 0.34
Cn1cc(C2=C(c3cn(C4CCN(Cc5ccccn5)CC4)c4ccccc34)C(=O)NC2=O)c2ccccc21 [Enzastaurin (LY317615)]	25.14	0.48	49.80	–
C=CC(=O)Nc1cccc(Nc2nc(Nc3ccc(Oc4ccnc(C(=O)NC)c4)cc3)ncc2F)c1 [CNX-774]	0.62	0.51	0.73	–
COc1cc(Nc2c(C#N)cnc3cc(OCCCN4CCN(C)CC4)c(OC)cc23)c(Cl)cc1Cl [Bosutinib (SKI-606)]	0.81	0.36	1.26	–
O=C(O)/C=C/c1ccc(Cn2ccnc2)cc1 [Ozagrel HCl]	0.79	0.85	0.72	–
Nc1nc(OCc2cc(Br)cs2)c2[nH]cnc2n1 [Lomeguatrib]	–	–	–	fold induction at 2.5 µM [6]: 1.09; fold induction at 2.5 µM [7]: 0.57; fold induction at 2.5 µM [8]: 1.61
C=CCNC1=C2C[C@@H](C)C[C@H](OC)[C@H](O)[C@@H](C)/C=C(\C)[C@H](OC(N)=O)[C@@H](OC)/C=C\C=C(/C)C(=O)NC(=CC1=O)C2=O [17-AAG (Tanespimycin)]	0.45	0.36	0.55	–
O=C(N/N=C/c1ccc(O)c(O)c1)c1cc2ccccc2cc1O [Dynasore]	–	–	–	fold induction at 2.5 µM [6]: 0.77; fold induction at 2.5 µM [7]: 0.64; fold induction at 2.5 µM [8]: 0.89
CCOC(=O)N1c2ccc(C(F)(F)F)cc2[C@@H](N(Cc2cc(C(F)(F)F)cc(C(F)(F)F)c2)C(=O)OC)C[C@H]1CC [Torcetrapib]	–	–	–	fold induction at 2.5 µM (read-out: Average LMP1 Fold Increase, Kem I cells, dose 2.5 uM, 48 hours, LMP1 transcript by in-well qRT-PCR, average of the two replicates): 0.5; fold induction at 2.5 µM (read-out: Replicate 1-LMP1 Fold Increase, Kem I cells, dose 2.5 uM, 48 hours, LMP1 transcript by in-well qRT-PCR, screen replicate 1): 0.4; fold induction at 2.5 µM (read-out: Replicate 2-LMP1 Fold Increase, Kem I cells, dose 2.5 uM, 48 hours, LMP1 transcript by in-well qRT-PCR, screen replicate 2): 0.6

Molecule	Average LMP1 Fold Increase [4]	Replicate 1-LMP1 Fold Increase [5]	Replicate 2-LMP1 Fold Increase [5]	further results
C#CCC(Cc1cnc2nc(N)nc(N)c2n1)c1ccc(C(=O)N[C@@H](CCC(=O)O)C(=O)O)cc1 (stereo partly drawn) [Pralatrexate]	–	–	–	fold induction at 2.5 µM [6]: 3.49; fold induction at 2.5 µM [7]: 3.95; fold induction at 2.5 µM [8]: 3.02
CC(C)Oc1ccc(-c2cnc3c(-c4ccnc5ccccc45)cnn3c2)cc1 [DMH1]	0.75	0.21	1.28	–
C=C1C(=O)O[C@H]2[C@H]1CC/C(C)=C/CC[C@@]1(C)O[C@@H]21 [(−)-Parthenolide]	0.57	0.26	0.87	–
O=c1cc(N2CCOCC2)oc2c1ccc1ccccc12 [NU7026]	0.77	0.47	1.07	–
O=C(Nc1cccc(C(F)(F)F)c1)Nc1cc(S(=O)(=O)NC2CC2)ccc1-c1ccsc1 [AGI-6780]	–	–	–	fold induction at 2.5 µM [6]: 1.51; fold induction at 2.5 µM [7]: 0.42; fold induction at 2.5 µM [8]: 2.6
CCO.N#CC(=C(/N)Sc1ccccc1N)/C(C#N)=C(\N)Sc1ccccc1N [U0126-EtOH]	–	–	–	Average LMP1 Fold Increase: 0.58 fold; Replicate 1-LMP1 Fold Increase: 0.51 fold; Replicate 2-LMP1 Fold Increase: 0.65 fold
Cc1ccc(S(=O)(=O)c2ccc([N+](=O)[O-])o2)cc1 [NSC697923]	0.09	0.10	0.09	–
O=C(O)CNC(=O)c1c(O)c2ccccc2n(Cc2ccccc2)c1=O [IOX2]	0.39	0.40	0.38	–
CCN(CC)C(=O)c1ccc(C2=CC3(CCNCC3)Oc3cccc(O)c32)cc1 [ADL5859 HCl]	–	–	–	fold induction at 2.5 µM [6]: 1.02; fold induction at 2.5 µM [7]: 0.54; fold induction at 2.5 µM [8]: 1.5
CC(C)n1c(/C=C/C(O)CC(O)CC(=O)O)c(-c2ccc(F)cc2)c2ccccc21 (stereo not drawn) [Fluvastatin Sodium]	–	–	–	fold induction at 2.5 µM [6]: 0.94; fold induction at 2.5 µM [7]: 0.84; fold induction at 2.5 µM [8]: 1.04
C=CCn1c(=O)c2cnc(Nc3ccc(N4CCN(C)CC4)cc3)nc2n1-c1cccc(C(C)(C)O)n1 [MK-1775]	–	–	–	fold induction at 2.5 µM [6]: 5.22; fold induction at 2.5 µM [7]: 6.01; fold induction at 2.5 µM [8]: 4.43
O=C(Nc1ccccc1)N1CCN(c2nc(-c3ccccc3)ns2)CC1 [JNJ-1661010]	0.51	0.31	0.70	–
Cc1ccc(C(=O)N(CCCN)[C@@H](c2oc3cc(Cl)ccc3c(=O)c2Cc2ccccc2)C(C)C)cc1 [SB743921]	1.76	1.10	2.41	–
C/C(=C\C(=O)Nc1ccccc1C(=O)O)c1ccc2ccccc2c1 [BIBR 1532]	0.77	0.63	0.91	–
O=C(O)c1ccc(Nc2ncc3c(n2)-c2ccc(Cl)cc2C(c2c(F)cccc2F)=NC3)cc1 [MLN8054]	–	–	–	fold induction at 2.5 µM [6]: 0.37; fold induction at 2.5 µM [7]: 0.27; fold induction at 2.5 µM [8]: 0.47
NC(=O)c1ccc(-c2nc(-c3ccccn3)c(-c3ccc4c(c3)OCO4)[nH]2)cc1 [SB431542]	0.71	0.82	0.61	–
Cc1ccc(-n2nccn2)c(C(=O)N2CCN(c3nc4cc(Cl)ccc4o3)CC[C@H]2C)c1 [Suvorexant (MK-4305)]	–	–	–	Average LMP1 Fold Increase [1]: 1.47 fold; Replicate 1-LMP1 Fold Increase [2]: 0.37 fold; Replicate 2-LMP1 Fold Increase [3]: 2.57 fold
